Values after ≈ are worked out from the molar mass of the structure shown. Blank lines part the entries; values can stand above or below the compound they belong to.
Assays:
Assay in all cases: ≥ marks a high value that may be exact or a test limit, other limits are often not marked, values filed in µg/mL are converted to µM
[1] = system: Acinetobacter baumannii CCARM 12035
[2] = system: Bacillus subtilis KCTC 3068
[3] = system: Enterococcus faecalis KCTC 2011
[4] = system: Escherichia coli CCARM 1229
[5] = system: Escherichia coli KCTC 1682
[6] = system: Pseudomonas aeruginosa CCARM 2095
[7] = system: Pseudomonas aeruginosa KCTC 1637
[8] = system: Salmonella typhimurium CCARM 8009
[9] = system: Salmonella typhimurium KCTC 1926
[10] = system: Staphylococcus aureus KCTC 1621
Candida albicans = system: Candida albicans
[11] = system: Corynebacterium jeikeium ATCC BAA-949
Pseudomonas aeruginosa 1 = system: Pseudomonas aeruginosa 1
Pseudomonas aeruginosa 2 = system: Pseudomonas aeruginosa 2
[12] = system: Pseudomonas aeruginosa ATCC 15692
[13] = system: Pseudomonas aeruginosa ATCC 27853
[14] = system: Pseudomonas aeruginosa PAO1
Pseudomonas aeruginosa = system: Pseudomonas aeruginosa
[15] = system: Pseudomonas aeruginosa H1001
[16] = system: Candida albicans ATCC 10231
[17] = system: Enterococcus faecalis PCM 2673
[18] = system: Escherichia coli ATCC 25922
[19] = system: Pseudomonas aeruginosa ATCC 9027
[20] = system: Staphylococcus aureus ATCC 25923
[21] = system: Batrachochytrium dendrobatidis
Escherichia coli K88 = system: Escherichia coli K88
[22] = system: Escherichia coli O157:H7 CICC 21530
[23] = system: Lacticaseibacillus rhamnosus 1.0911
[24] = system: Lacticaseibacillus rhamnosus 1.0936
[25] = system: Lacticaseibacillus rhamnosus 1.9021
[26] = system: Lacticaseibacillus rhamnosus 8014
[27] = system: Salmonella enterica subsp. enterica serovar Choleraesuis CVCC 503
[28] = system: Salmonella enterica subsp. enterica serovar Pullorum C79-13
[29] = system: Salmonella enterica subsp. enterica serovar Typhimurium ATCC 14028
[30] = system: Staphylococcus aureus ATCC 29213
[31] = system: Staphylococcus aureus ATCC 43300
[32] = system: Staphylococcus epidermidis ATCC 12228
[33] = system: Streptococcus agalactiae BNCC 185941

- MIC [1]: 8 µM (≈ 20.3 µg/mL)
- MIC [2]: ≥ 32 µM
- MIC [3]: ≥ 128 µM
- MIC [4]: 2 µM (≈ 5.08 µg/mL)
- MIC [5]: 2 µM (≈ 5.08 µg/mL)
- MIC [6]: 4 µM (≈ 10.2 µg/mL)
- MIC [7]: 4 µM (≈ 10.2 µg/mL)
- MIC [8]: 2 µM (≈ 5.08 µg/mL)
- MIC [9]: 4 µM (≈ 10.2 µg/mL)
- MIC [10]: ≥ 32 µM
SMILES: CC[C@H](C)[C@H](NC(=O)CNC(=O)[C@H](CC(=O)O)NC(=O)[C@H](CCCN=C(N)N)NC(=O)[C@@H](NC(=O)[C@H](CC(N)=O)NC(=O)[C@H](CCCN=C(N)N)NC(=O)CNC(=O)[C@@H](NC(=O)[C@H](CCCCN)NC(=O)[C@H](CCC(=O)O)NC(=O)[C@@H](NC(=O)[C@H](CCCCN)NC(=O)[C@H](CCCCN)NC(=O)[C@H](Cc1ccccc1)NC(=O)[C@@H](NC(=O)[C@H](CCCCN)NC(=O)[C@H](C)NC(=O)[C@@H](N)CCCN=C(N)N)[C@@H](C)CC)[C@@H](C)CC)C(C)C)C(C)C)C(=O)N[C@H](C(=O)N[C@@H](CCCCN)C(=O)N[C@@H](C)C(N)=O)[C@@H](C)CC [RAKIFKKIEKVGRNVRDGIIKA]

- MIC (Candida albicans): 2.83 µM (≈ 5.34 µg/mL)
- MIC [11]: 4 µM (≈ 7.55 µg/mL)
- MIC (Pseudomonas aeruginosa 1): 8 µM (≈ 15.1 µg/mL)
- MIC (Pseudomonas aeruginosa 2): 16 µM (≈ 30.2 µg/mL)
- MIC [12]: 8 µM (≈ 15.1 µg/mL)
- MIC [13]: 8 µM (≈ 15.1 µg/mL)
- MIC [14]: 8 µM (≈ 15.1 µg/mL)
- MIC (Pseudomonas aeruginosa): 8 µM (≈ 15.1 µg/mL)
SMILES: CC[C@H](C)[C@H](NC(=O)CN)C(=O)N[C@@H](Cc1ccccc1)C(=O)N[C@@H](CO)C(=O)N[C@@H](CCCCN)C(=O)N[C@@H](CC(C)C)C(=O)N[C@@H](C)C(=O)NCC(=O)N[C@@H](CCCCN)C(=O)N[C@@H](CCCCN)C(=O)N[C@@H](CC(C)C)C(=O)N[C@@H](CCCCN)C(=O)N[C@@H](CC(N)=O)C(=O)N[C@@H](CC(C)C)C(=O)N[C@@H](CC(C)C)C(=O)N[C@H](C(=O)N[C@@H](CO)C(=O)NCC(N)=O)[C@@H](C)CC [GIFSKLAGKKLKNLLISG]

- MIC [15]: 21.5 µM (≈ 25 µg/mL)
SMILES: CC[C@H](C)[C@H](NC(=O)[C@H](C)NC(=O)[C@H](CC(N)=O)NC(=O)[C@@H](N)CCSC)C(=O)N[C@@H](CCCCN)C(=O)N[C@@H](CC(C)C)C(=O)N[C@@H](CC(C)C)C(=O)N[C@@H](CS)C(=O)N[C@@H](CCCN=C(N)N)C(=O)N[C@H](C(=O)O)C(C)C [MNAIKLLCRV]

- MIC [16]: 44.5 µM (≈ 64 µg/mL)
- MIC [17]: 22.3 µM (≈ 32 µg/mL)
- MIC [18]: 5.57 µM (≈ 7.99 µg/mL)
- MIC [19]: 44.5 µM (≈ 64 µg/mL)
- MIC [20]: 11.1 µM (≈ 16 µg/mL)
SMILES: CC[C@H](C)[C@H](NC(=O)[C@H](C)NC(=O)[C@H](Cc1ccccc1)NC(=O)[C@H](CC(C)C)NC(=O)CN)C(=O)N[C@H](C(=O)N[C@@H](CCCCN)C(=O)N[C@@H](CCCCN)C(=O)N[C@H](C(=O)N[C@@H](C)C(=O)N[C@@H](CCC(=O)O)C(=O)N[C@@H](CO)C(=O)N[C@@H](Cc1ccccc1)C(N)=O)[C@@H](C)CC)[C@@H](C)CC [GLFAIIKKIAESF]

- MIC [21]: 25.1 µM (≈ 36 µg/mL)
SMILES: CC[C@H](C)[C@H](NC(=O)CNC(=O)[C@H](CO)NC(=O)[C@H](CC(C)C)NC(=O)[C@@H](NC(=O)[C@H](CCCN=C(N)N)NC(=O)CNC(=O)[C@@H](NC(=O)[C@H](CC(C)C)NC(=O)[C@@H]1CCCN1C(=O)[C@H](CC(C)C)NC(=O)[C@@H](N)Cc1c[nH]c2ccccc12)[C@@H](C)CC)C(C)C)C(=O)N[C@@H](CC(C)C)C(N)=O [WLPLIGRVLSGIL]

- MIC (Escherichia coli K88): 4 µM (≈ 5.59 µg/mL)
- MIC [22]: 8 µM (≈ 11.2 µg/mL)
- MIC [23]: ≥ 128 µM
- MIC [24]: ≥ 128 µM
- MIC [25]: ≥ 128 µM
- MIC [26]: ≥ 128 µM
- MIC [13]: 16 µM (≈ 22.3 µg/mL)
- MIC [14]: 32 µM (≈ 44.7 µg/mL)
- MIC [28]: 16 µM (≈ 22.3 µg/mL)
- MIC [29]: 32 µM (≈ 44.7 µg/mL)
- MIC [30]: > 128 µM
- MIC [31]: > 128 µM
- MIC [32]: > 128 µM
- MIC [33]: ≥ 128 µM
SMILES: CC(C)C[C@H](NC(=O)CNC(=O)[C@H](CC(C)C)NC(=O)[C@H](Cc1c[nH]c2ccccc12)NC(=O)[C@H](CC(C)C)NC(=O)CNC(=O)[C@H](CC(C)C)NC(=O)[C@H](CCCCN)NC(=O)[C@H](CCCCN)NC(=O)CN)C(=O)N[C@@H](CCCCN)C(=O)N[C@@H](CCCCN)C(=O)NCC(N)=O [GKKLGLWLGLKKG]
- MIC [27]: ≥ 32 µM

- MIC [16]: 356 µM (≈ 512 µg/mL)
- MIC [17]: ≥ 89 µM
- MIC [18]: 356 µM (≈ 512 µg/mL)
- MIC [19]: > 356 µM
- MIC [20]: > 356 µM
SMILES: CC[C@H](C)[C@H](NC(=O)[C@H](CC(=O)O)NC(=O)[C@H](Cc1ccccc1)NC(=O)[C@H](CC(C)C)NC(=O)CN)C(=O)N[C@H](C(=O)N[C@@H](CCCCN)C(=O)N[C@@H](CCCCN)C(=O)N[C@@H](C)C(=O)N[C@@H](C)C(=O)N[C@@H](CCC(=O)O)C(=O)N[C@@H](CO)C(=O)N[C@@H](Cc1ccccc1)C(N)=O)[C@@H](C)CC [GLFDIIKKAAESF]

- MIC [15]: 0.12 µM (≈ 0.3 µg/mL)
SMILES: CC[C@H](C)[C@H](NC(=O)[C@H](CCCN=C(N)N)NC(=O)[C@H](CCCN=C(N)N)NC(=O)[C@@H]1CCCN1C(=O)[C@@H]1CCCN1C(=O)[C@H](CCCN=C(N)N)NC(=O)[C@@H]1CCCN1C(=O)[C@H](CCCN=C(N)N)NC(=O)[C@@H]1CCCN1C(=O)[C@H](CC(C)C)NC(=O)[C@H](Cc1ccc(O)cc1)NC(=O)[C@@H]1CCCN1C(=O)[C@@H]1CCCN1C(=O)[C@H](CCCCN)NC(=O)[C@H](CC(=O)O)NC(=O)[C@@H](N)C(C)C)C(=O)N[C@@H](Cc1ccc(O)cc1)C(=O)N[C@@H](Cc1ccc(O)cc1)C(=O)N[C@@H](CCCN=C(N)N)C(=O)NCC(=O)O [VDKPPYLPRPRPPRRIYYRG]

- MIC [1]: 4 µM (≈ 10.6 µg/mL)
- MIC [2]: 8 µM (≈ 21.2 µg/mL)
- MIC [3]: ≥ 64 µM
- MIC [4]: 2 µM (≈ 5.31 µg/mL)
- MIC [5]: 1 µM (≈ 2.65 µg/mL)
- MIC [6]: 2 µM (≈ 5.31 µg/mL)
- MIC [7]: 2 µM (≈ 5.31 µg/mL)
- MIC [8]: 2 µM (≈ 5.31 µg/mL)
- MIC [9]: 2 µM (≈ 5.31 µg/mL)
- MIC [10]: 16 µM (≈ 42.5 µg/mL)
SMILES: CC[C@H](C)[C@H](NC(=O)CNC(=O)[C@H](CC(=O)O)NC(=O)[C@H](CCCN=C(N)N)NC(=O)[C@@H](NC(=O)[C@H](CC(N)=O)NC(=O)[C@H](CCCN=C(N)N)NC(=O)CNC(=O)[C@@H](NC(=O)[C@H](CCCCN)NC(=O)[C@H](CCC(=O)O)NC(=O)[C@@H](NC(=O)[C@H](CCCCN)NC(=O)[C@H](CCCCN)NC(=O)[C@H](Cc1c[nH]c2ccccc12)NC(=O)[C@@H](NC(=O)[C@H](CCCCN)NC(=O)[C@H](Cc1ccccc1)NC(=O)[C@@H](N)CCCN=C(N)N)[C@@H](C)CC)[C@@H](C)CC)C(C)C)C(C)C)C(=O)N[C@H](C(=O)N[C@@H](CCCCN)C(=O)N[C@@H](C)C(N)=O)[C@@H](C)CC [RFKIWKKIEKVGRNVRDGIIKA]

Source: DBAASP
